Measurements as given in US12485134B2, “Use of nicotinamide riboside, nicotinic acid riboside, reduced nicotinyl riboside compounds, and nicotinyl riboside compound derivatives in formulations” (ChromaDex Inc., priority 2019, dated 2025).

Test system: hydrolyzed whey protein isolate
Test: NR-Cl binding to hydrolyzed whey protein isolate (10 kDa cutoff filtration, unbound NR-Cl in filtrate by HPLC)
Procedure: A. Solutions of hydrolyzed whey protein isolate (>90% protein, 2-7% degree of hydrolysis) were prepared at varying concentrations and filtered through 0.2 μm sterile filters. An aliquot of sterile nicotinamide riboside chloride (“NR-Cl,” a salt of NR, I) in water solution was spiked into the sterile whey solutions, targeting a final NR-Cl concentration of 1 mmol per liter (0.3 mg/mL). The solutions containing the mixture of hydrolyzed whey and NR-Cl were filtered through 10 kDa molecular weight cutoff centrifuge filters to remove the whey proteins (14-80 kDa) and any NR-Cl that was bound to the proteins. Any NR-Cl that was not bound to the whey proteins was recovered in the filtrate and quantitated by HPLC.
The solutions of hydrolyzed whey protein isolate and NR-Cl were stored at ambient and refrigerated conditions and analyzed at various timepoints for NR-Cl protein binding and stability.
A study measuring the stability of NR-Cl in hydrolyzed and non-hydrolyzed whey protein was conducted with 2 mmol/L NR-Cl (0.6 mg/mL) and 20 mg/mL protein (33.3:1 wt:wt protein:NR-Cl). […] (See Table 5).

For NC(=O)c1ccc[n+]([C@@H]2O[C@H](CO)[C@@H](O)[C@H]2O)c1.[Cl-] [NR-Cl, nicotinamide riboside chloride], the “fraction of NR-Cl bound to whey protein over the course of the experiments” value (7 days ambient, 30 days refrigerated) was “remain stable”, the “% NR-Cl Bound to Protein” value (Hydrolyzed Whey Protein Isolate 20 mg/mL, 2 mmol/L NR-Cl (33.3:1 wt:wt), 0 days refrigerated) was 55% and the “% NR-Cl Bound to Protein” value (Hydrolyzed Whey Protein Isolate 20 mg/mL, 2 mmol/L NR-Cl (33.3:1 wt:wt), 1 day refrigerated) was 56%. For the same compound, the “% NR-Cl Bound to Protein” value (hydrolyzed whey protein isolate:NR-Cl 18.3:1 (wt:wt), 1 mmol/L NR-Cl) was 41%, the “% NR-Cl Bound to Protein” value (hydrolyzed whey protein isolate:NR-Cl 37:1 (wt:wt), 1 mmol/L NR-Cl) was 47% and the “% NR-Cl Bound to Protein” value (hydrolyzed whey protein isolate:NR-Cl 73:1 (wt:wt), 1 mmol/L NR-Cl) was 60%. For the same compound, the “% NR-Cl Bound to Protein” value (hydrolyzed whey protein isolate:NR-Cl 147:1 (wt:wt), 1 mmol/L NR-Cl) was 65%, the “% NR-Cl Bound to Protein” value (hydrolyzed whey protein isolate:NR-Cl 293:1 (wt:wt), 1 mmol/L NR-Cl) was 67% and the “% NR-Cl Bound to Protein” value (hydrolyzed whey:NR-Cl 18.3:1 (wt:wt), 0 days ambient) was 41%. The “% NR-Cl Bound to Protein” value (hydrolyzed whey:NR-Cl 18.3:1 (wt:wt), 0 days refrigerated) was 41%, the “% NR-Cl Bound to Protein” value (hydrolyzed whey:NR-Cl 18.3:1 (wt:wt), 3 days ambient) was 44% and the “% NR-Cl Bound to Protein” value (hydrolyzed whey:NR-Cl 18.3:1 (wt:wt), 5 days ambient) was 45%. For the same compound, the “% NR-Cl Bound to Protein” value (hydrolyzed whey:NR-Cl 18.3:1 (wt:wt), 7 days ambient) was 43%, the “% NR-Cl Bound to Protein” value (hydrolyzed whey:NR-Cl 18.3:1 (wt:wt), 30 days refrigerated) was 24% and the “% NR-Cl Bound to Protein” value (hydrolyzed whey:NR-Cl 37:1 (wt:wt), 0 days ambient) was 47%. For the same compound, the “% NR-Cl Bound to Protein” value (hydrolyzed whey:NR-Cl 37:1 (wt:wt), 0 days refrigerated) was 47%, the “% NR-Cl Bound to Protein” value (hydrolyzed whey:NR-Cl 37:1 (wt:wt), 3 days ambient) was 55% and the “% NR-Cl Bound to Protein” value (hydrolyzed whey:NR-Cl 37:1 (wt:wt), 5 days ambient) was 54%. The “% NR-Cl Bound to Protein” value (hydrolyzed whey:NR-Cl 37:1 (wt:wt), 7 days ambient) was 54%, the “% NR-Cl Bound to Protein” value (hydrolyzed whey:NR-Cl 37:1 (wt:wt), 30 days refrigerated) was 45% and the “% NR-Cl Bound to Protein” value (hydrolyzed whey:NR-Cl 73:1 (wt:wt), 0 days ambient) was 60%. For the same compound, the “% NR-Cl Bound to Protein” value (hydrolyzed whey:NR-Cl 73:1 (wt:wt), 0 days refrigerated) was 60%, the “% NR-Cl Bound to Protein” value (hydrolyzed whey:NR-Cl 73:1 (wt:wt), 3 days ambient) was 66% and the “% NR-Cl Bound to Protein” value (hydrolyzed whey:NR-Cl 73:1 (wt:wt), 5 days ambient) was 65%. The “% NR-Cl Bound to Protein” value (hydrolyzed whey:NR-Cl 73:1 (wt:wt), 7 days ambient) was 65%, the “% NR-Cl Bound to Protein” value (hydrolyzed whey:NR-Cl 73:1 (wt:wt), 30 days refrigerated) was 57% and the “% NR-Cl Bound to Protein” value (hydrolyzed whey:NR-Cl 147:1 (wt:wt), 0 days ambient) was 65%. For the same compound, the “% NR-Cl Bound to Protein” value (hydrolyzed whey:NR-Cl 147:1 (wt:wt), 3 days ambient) was 71%, the “% NR-Cl Bound to Protein” value (hydrolyzed whey:NR-Cl 147:1 (wt:wt), 5 days ambient) was 72% and the “% NR-Cl Bound to Protein” value (hydrolyzed whey:NR-Cl 147:1 (wt:wt), 7 days ambient) was 69%. The “% NR-Cl Bound to Protein” value (hydrolyzed whey:NR-Cl 293:1 (wt:wt), 0 days ambient) was 67%, the “% NR-Cl Bound to Protein” value (hydrolyzed whey:NR-Cl 293:1 (wt:wt), 3 days ambient) was 62% and the “% NR-Cl Bound to Protein” value (hydrolyzed whey:NR-Cl 293:1 (wt:wt), 7 days ambient) was 72%.
